In ChEMBL document CHEMBL4732083, “Synthesis and anti-inflammatory activity of saponin derivatives of δ-oleanolic acid” (Eur J Med Chem, 2021):
Activity calls are given as the source filed them. The calls are words filed in the database; no cut-off is given here.

How the values were obtained:
[1] = molecular target: AMP-activated protein kinase, AMPK (Homo sapiens) (UniProt P54646+O43741+P54619+Q9UGJ0+Q9Y478+Q13131+Q9UGI9); experiment: Activation of AMPK in human Huh-7 cells assessed as increase in AMPK phosphorylation at Thr172 residue at 10 uM measured after 12 hrs by Western blot analysis; format: cell-based; details: filed as activator
[2] = Cmax in BALB/c mouse at 2 mg/kg, iv by LC/MS-MS analysis; format: ADME, organism-based; design: route intravenous, dose 2 mg/kg; details: in vivo
[3] = Half life in BALB/c mouse at 10 mg/kg, po by LC/MS-MS analysis; format: ADME, organism-based; details: in vivo
[4] = AUC (0 to t) in BALB/c mouse at 2 mg/kg, iv by LC/MS-MS analysis; format: ADME, organism-based; design: dose 2 mg/kg; details: in vivo
[5] = AUC (0 to infinity) in BALB/c mouse at 10 mg/kg, po by LC/MS-MS analysis; format: ADME, organism-based; design: route oral, time infinity, dose 10 mg/kg; details: in vivo
[6] = Metabolic stability in human liver microsomes assessed as half life in presence of NADPH by LC-MS analysis; format: ADME, Microsome
[7] = AUC (0 to infinity) in BALB/c mouse at 2 mg/kg, iv by LC/MS-MS analysis; format: ADME, organism-based; design: route intravenous, time infinity, dose 2 mg/kg; details: in vivo
[8] = Half life in BALB/c mouse at 2 mg/kg, iv by LC/MS-MS analysis; format: ADME, organism-based; details: in vivo
[9] = Bioavailability in BALB/c mouse at 10 mg/kg, po by LC/MS-MS analysis; format: ADME, organism-based; details: in vivo
[10] = Metabolic stability in mouse liver microsomes assessed as intrinsic clearance in presence of NADPH by LC-MS analysis; format: ADME, Microsome; details: read-out: CLH
[11] = Metabolic stability in mouse liver microsomes assessed as half life in presence of NADPH by LC-MS analysis; format: ADME, Microsome
[12] = Tmax in BALB/c mouse at 2 mg/kg, iv by LC/MS-MS analysis; format: ADME, organism-based; details: in vivo
[13] = Tmax in BALB/c mouse at 10 mg/kg, po by LC/MS-MS analysis; format: ADME, organism-based; details: in vivo
[14] = AUC (0 to t) in BALB/c mouse at 10 mg/kg, po by LC/MS-MS analysis; format: ADME, organism-based; design: dose 10 mg/kg; details: in vivo
[15] = Metabolic stability in human liver microsomes assessed as intrinsic clearance in presence of NADPH by LC-MS analysis; format: ADME, Microsome; details: read-out: CLH
[16] = Cmax in BALB/c mouse at 10 mg/kg, po by LC/MS-MS analysis; format: ADME, organism-based; design: route oral, dose 10 mg/kg; details: in vivo
[17] = tested on: THP-1; experiment: Antiinflammatory activity in human THP-1 cells assessed as reduction in LPS-induced IL6 secretion at 10 uM incubated for 12 hrs measured by ELISA; format: functional, cell-based
[18] = tested on: THP-1; experiment: Cytotoxicity against human THP-1 cells assessed as reduction in cell viability at 1 to 10 uM; format: cell-based; details: thp-1, 10 µM
[19] = tested on: THP-1; experiment: Antiinflammatory activity in human THP-1 cells assessed as reduction in LPS-induced TNF alpha secretion at 10 uM incubated for 12 hrs measured by ELISA; format: functional, cell-based

CC1(C)CC[C@]2(C(=O)O)CC[C@]3(C)C(=CC[C@@H]4[C@@]5(C)CC[C@H](O)C(C)(C)[C@@H]5CC[C@]43C)[C@@H]2C1
Activity [1]: Active

C[C@@H]1O[C@@H](O[C@H]2[C@H](O[C@H]3CC[C@@]4(C)[C@@H](CC[C@]5(C)[C@@H]4CC=C4[C@@H]6CC(C)(C)CC[C@]6(C(=O)O[C@@H]6O[C@H](CO[C@@H]7O[C@H](CO)[C@@H](O[C@@H]8O[C@@H](C)[C@H](O)[C@@H](O)[C@H]8O)[C@H](O)[C@H]7O)[C@@H](O)[C@H](O)[C@H]6O)CC[C@]45C)[C@]3(C)CO)OC[C@H](O)[C@@H]2O)[C@H](O)[C@H](O)[C@H]1O
Activity [1]: Active

CC1(C)CC[C@]2(C(=O)O)CC[C@]3(C)C(=CC[C@@H]4[C@@]5(C)C[C@@H](O)[C@H](O)C(C)(C)[C@@H]5CC[C@]43C)[C@@H]2C1
Activity [1]: Active

C[C@H]1[C@H](C)CC[C@]2(C(=O)O)CC[C@]3(C)C(=CC[C@@H]4[C@@]5(C)C[C@@H](O)[C@H](O)[C@@](C)(CO)[C@@H]5CC[C@]43C)[C@H]12
Activity [1]: Active

C[C@H]1[C@H](C)CC[C@]2(C(=O)O)CC[C@]3(C)C(=CC[C@@H]4[C@@]5(C)CC[C@H](O)C(C)(C)[C@@H]5CC[C@]43C)[C@H]12
Activity [1]: Active

C=C(C)[C@@H]1CC[C@]2(C(=O)O)CC[C@]3(C)[C@H](CC[C@@H]4[C@@]5(C)CC[C@H](O)C(C)(C)[C@@H]5CC[C@]43C)[C@@H]12
Activity [1]: Active

C[C@H]1[C@H](C)CC[C@]2(C(=O)O[C@@H]3O[C@H](CO[C@@H]4O[C@H](CO)[C@@H](O[C@@H]5O[C@@H](C)[C@H](O)[C@@H](O)[C@H]5O)[C@H](O)[C@H]4O)[C@@H](O)[C@H](O)[C@H]3O)CC[C@]3(C)C(=CC[C@@H]4[C@@]5(C)C[C@@H](O)[C@H](O)[C@@](C)(CO)[C@@H]5CC[C@]43C)[C@H]12
Activity [1]: Active

C[C@H]1[C@H](C)CC[C@]2(C(=O)O)CC[C@]3(C)C(=CC[C@@H]4[C@@]5(C)C[C@@H](O)[C@H](O)C(C)(C)[C@@H]5CC[C@]43C)[C@H]12
Activity [1]: Active

CC1(C)CC[C@]2(C(=O)O)CC[C@]3(C)C(=C2C1)CC[C@@H]1[C@@]2(C)CC[C@H](O[C@@H]4OC[C@H](O)[C@H](O)[C@H]4O[C@@H]4OC[C@@H](O)[C@H](O)[C@H]4O)C(C)(C)[C@@H]2CC[C@]13C
Cmax [2]: 8820 ng/mL
half-life [3]: 1.26 h
AUC(0-t) [4]: 2570 ng·h/mL
AUC(0-inf) [5]: 151 ng·h/mL
half-life [6]: > 2 h
AUC(0-inf) [7]: 2590 ng·h/mL
half-life [8]: 2.25 h
bioavailability [9]: 1.13%
CLint scaled [10]: 2.34 mL/min/kg
half-life [11]: > 2 h
Tmax [12]: 4.8 min
Tmax [13]: 0.75 h
AUC(0-t) [14]: 145 ng·h/mL
CLint scaled [15]: 3.25 mL/min/kg
Cmax [16]: 54.2 ng/mL

C[C@H]1[C@H](C)CC[C@]2(C(=O)O)CC[C@]3(C)C(=CC[C@@H]4[C@@]5(C)C[C@@H](O)[C@H](O)[C@@](C)(CO)[C@@H]5[C@H](O)C[C@]43C)[C@H]12
Activity [1]: Active

CC1(C)CC[C@]2(C(=O)O[C@@H]3OC[C@@H](O)[C@H](O)[C@H]3O)CC[C@]3(C)C(=C2C1)CC[C@@H]1[C@@]2(C)CC[C@H](O[C@@H]4OC[C@H](O)[C@H](O)[C@H]4O)C(C)(C)[C@@H]2CC[C@]13C
Activity [17]: Active
Cmax [2]: 3500 ng/mL
half-life [3]: 1.14 h
AUC(0-t) [4]: 3220 ng·h/mL
AUC(0-inf) [5]: 3080 ng·h/mL
half-life [6]: 0.751 h
AUC(0-inf) [7]: 3300 ng·h/mL
half-life [8]: 1.74 h
bioavailability [9]: 18.6%
half-life [11]: > 2 h
Tmax [12]: 4.8 min
Activity [18]: Non-Toxic
Activity [19]: Active
Tmax [13]: 2.67 h
AUC(0-t) [14]: 3000 ng·h/mL
CLint scaled [15]: 38.6 mL/min/kg
Cmax [16]: 728 ng/mL

CC1(C)CC[C@]2(C(=O)O)CC[C@]3(C)C(=C2C1)CC[C@@H]1[C@@]2(C)CC[C@H](O[C@@H]4OC[C@H](O)[C@H](O)[C@H]4O[C@@H]4O[C@H](CO)[C@@H](O)[C@H](O)[C@H]4O)C(C)(C)[C@@H]2CC[C@]13C
Activity [17]: Active
Activity [19]: Active

CC1(C)[C@@H](O)CC[C@]2(C)[C@H]3C(=O)C=C4[C@@H]5C[C@@](C)(C(=O)O)CC[C@]5(C)CC[C@@]4(C)[C@]3(C)CC[C@@H]12
Activity [1]: Active

CC1(C)CC[C@]2(C(=O)O)CC[C@]3(C)C(=CC[C@@H]4[C@@]5(C)CC[C@H](O)[C@@](C)(CO)[C@@H]5CC[C@]43C)[C@@H]2C1
Activity [1]: Active

C[C@@H]1CC[C@]2(C(=O)O)CC[C@]3(C)C(=CC[C@@H]4[C@@]5(C)CC[C@H](O[C@@H]6OC[C@H](O)[C@H](O)[C@H]6O)C(C)(C)[C@@H]5CC[C@]43C)[C@@H]2[C@]1(C)O
Activity [1]: Active

CC1(C)CC[C@]2(C(=O)O)CC[C@]3(C)C(=CC[C@@H]4[C@@]5(C)CC[C@H](O[C@@H]6O[C@H](C(=O)O)[C@@H](O)[C@H](O[C@@H]7OC[C@@H](O)[C@H](O)[C@H]7O)[C@H]6O)C(C)(C)[C@@H]5CC[C@]43C)[C@@H]2C1
Activity [1]: Active

C[C@H]1[C@H](C)CC[C@]2(C(=O)O[C@@H]3O[C@H](CO[C@@H]4O[C@H](CO)[C@@H](O[C@@H]5O[C@@H](C)[C@H](O)[C@@H](O)[C@H]5O)[C@H](O)[C@H]4O)[C@@H](O)[C@H](O)[C@H]3O)CC[C@]3(C)C(=CC[C@@H]4[C@@]5(C)C[C@@H](O)[C@H](O)[C@@](C)(CO)[C@@H]5[C@H](O)C[C@]43C)[C@H]12
Activity [1]: Active

CC1(C)CC[C@]2(C(=O)O[C@@H]3O[C@H](CO)[C@@H](O)[C@H](O)[C@H]3O)CC[C@]3(C)C(=CC[C@@H]4[C@@]5(C)CC[C@H](O[C@@H]6O[C@H](C(=O)O)[C@@H](O)[C@H](O)[C@H]6O[C@@H]6O[C@H](CO)[C@@H](O)[C@H](O)[C@H]6O)C(C)(C)[C@@H]5CC[C@]43C)[C@@H]2C1
Activity [1]: Active

O=C(c1ccc(F)cc1)C1CCN(CCn2c(=O)[nH]c3ccccc3c2=O)CC1 [KETANSERIN]
half-life [6]: 0.707 h
CLint scaled [10]: 283 mL/min/kg
half-life [11]: 0.322 h
CLint scaled [15]: 41 mL/min/kg

C[C@@H]1CC[C@]2(C(=O)O[C@@H]3O[C@H](CO)[C@@H](O)[C@H](O)[C@H]3O)CC[C@]3(C)C(=CC[C@@H]4[C@@]5(C)CC[C@H](O[C@@H]6OC[C@H](O)[C@H](O)[C@H]6O)C(C)(C)[C@@H]5CC[C@]43C)[C@@H]2[C@]1(C)O
Activity [1]: Active

CC1(C)CC[C@]2(C(=O)O)CC[C@]3(C)C(=CC[C@@H]4[C@@]5(C)CC[C@H](O[C@@H]6O[C@H](C(=O)O)[C@@H](O)[C@H](O)[C@H]6O)C(C)(C)[C@@H]5CC[C@]43C)[C@@H]2C1
Activity [1]: Active

CC1(C)[C@@H](O[C@H]2O[C@H](C(=O)O)[C@@H](O)[C@H](O)[C@H]2O[C@@H]2O[C@H](C(=O)O)[C@@H](O)[C@H](O)[C@H]2O)CC[C@]2(C)[C@H]3C(=O)C=C4[C@@H]5C[C@@](C)(C(=O)O)CC[C@]5(C)CC[C@@]4(C)[C@]3(C)CC[C@@H]12
Activity [1]: Active

CC1(C)CC[C@]2(C(=O)O[C@@H]3O[C@H](CO[C@@H]4O[C@H](CO)[C@@H](O)[C@H](O)[C@H]4O)[C@@H](O)[C@H](O)[C@H]3O)CC[C@]3(C)C(=CC[C@@H]4[C@@]5(C)CC[C@H](O[C@@H]6OC[C@H](O)[C@H](O)[C@H]6O)[C@@](C)(CO)[C@@H]5CC[C@]43C)[C@@H]2C1
Activity [1]: Active
